Test results published in US7053088B2, “Vanilloid receptor ligands and their use in treatments” (Amgen Inc., priority 2002, dated 2006).
Counter-ions that a name gives are not always drawn.

Compound	melting point
CC(C)(C)c1ccc(-c2cc(Nc3ccc4[nH]ccc4c3)nnc2-c2ccccc2)cc1 [[5-(4-tert-Butylphenyl)-6-phenyl-pyridazin-3-yl]-(1H-indol-5-yl)-amine]	138 to 140 °C
Fc1ccc(-c2nnc(Nc3ccc4ncsc4c3)cc2-c2ccc(C(F)(F)F)cc2)cc1 [benzothiazol-6-yl-[6-(4-fluorophenyl)-5-(4-trifluoromethylphenyl)pyridazin-3-yl]amine]	269 °C
CC(C)(C)c1ccc(-c2cc(Nc3ccc4ncsc4c3)nnc2-c2ccccc2)cc1 [Benzothiazol-6-yl-[5-(4-tert-butylphenyl)-6-phenylpyridazin-3-yl]amine]	293 to 295 °C
FC(F)(F)c1ccc(-c2cc(Nc3cccc4ccc(Cl)nc34)ncn2)cc1 [(2-Chloroquinolin-8-yl)-[6-(4-trifluoromethylphenyl)pyrimidin-4-yl]amine]	240 °C
CC(=O)N1CC(C)(C)c2ccc(Nc3cc(-c4ccc(C(F)(F)F)cc4)ncn3)cc21 [1-{3,3-Dimethyl-6-[6-(4-trifluoromethylphenyl)pyrimidin-4-ylamino]-2,3-dihydroindol-1-yl}ethanone]	227 to 230 °C
CC(C)(C)c1ccc(-c2cc(Nc3ccccc3)ncn2)cc1 [[6-(4-tert-butylphenyl)pyrimidin-4-yl]phenylamine]	166 °C
Nc1cc(C(F)(F)F)ccc1-c1cc(Nc2ccc3ncsc3c2)ncn1 [[6-(2-Amino-4-trifluoromethylphenyl)pyrimidin-4-yl]benzothiazol-6-ylamine]	203.1 to 203.2 °C
CC(C)(C)c1ccc(-c2cc(Nc3cccc4[nH]ccc34)ncn2)cc1 [Example 46]	241 to 242 °C
FC(F)(F)c1ccc(-c2cc(Nc3ccccc3)ncn2)cc1 [phenyl-[6-(4-trifluoromethylphenyl)pyrimidin-4-yl]amine]	184 to 186 °C
CC(=O)Nc1nc2c(Nc3cc(-c4ccc(C(F)(F)F)cc4)ncn3)cccc2s1 [N-{4-[6-(4-Trifluoromethylphenyl)pyrimidin-4-ylamino]benzothiazol-2-yl}acetamide]	> 250 °C
CC(C)(C)c1ccc(-c2cc(Nc3ccc4[nH]ccc4c3)ncn2)cc1 [Example 54]	238 to 240 °C
FC(F)(F)c1ccc(-c2cc(Nc3ccc4ncccc4c3)ncn2)cc1 [Example 72]	268 to 269 °C
COc1ccc2ccc(Nc3cc(-c4ccc(C(F)(F)F)cc4)ncn3)cc2n1 [(2-Methoxyquinolin-7-yl)-[6-(4-trifluoromethylphenyl)pyrimidin-4-yl]amine]	199 °C
FC(F)(F)c1ccc(-c2cc(Nc3ccc(Cl)c(C(F)(F)F)c3)ncn2)cc1 [(4-chloro-3-trifluoromethylphenyl)-[6-(4-trifluoromethylphenyl)pyrimidin-4-yl]amine]	172 to 175 °C
FC(F)(F)c1ccc(-c2cc(Nc3cccc4[nH]ccc34)ncn2)cc1 [Example 43]	222 to 224 °C
FC(F)(F)c1ccc(-c2cc(Nc3cccc4cccnc34)ncn2)cc1 [Example 73]	162 to 163 °C
CC(C)(C)c1ccc(-c2cc(Nc3ccc4nn[nH]c4c3)ncn2)cc1 [(3H-benzotriazol-5-yl)-[6-(4-tert-butylphenyl)pyrimidin-4-yl]amine]	250 to 252 °C
Nc1ccc2cccc(Nc3cc(-c4ccc(C(F)(F)F)cc4)ncn3)c2n1 [N^8-[6-(4-Trifluoromethylphenyl)pyrimidin-4-yl]quinoline-2,8-diamine]	211 to 213 °C
FC(F)(F)c1ccc(-c2cc(Nc3ccc4c(n3)NCCC4)ncn2)cc1 [(5,6,7,8-tetrahydro[1,8]naphthyridin-2-yl)-[6-(4-trifluoromethylphenyl)pyrimidin-4-yl]amine]	168 °C
CC(C)(C)c1ccc(-c2cc(Nc3ccc4ncsc4c3)nc(N)n2)cc1.Cl [N^4-Benzothiazol-6-yl-6-(4-tert-butylphenyl)pyrimidine-2,4-diamine hydrochloride]	220 to 222 °C
FC(F)(F)c1ccc(-c2cc(Nc3ccc4[nH]ncc4c3)ncn2)cc1 [(1H-indazol-5-yl)-[6-(4-trifluoromethylphenyl)pyrimidin-4-yl]amine]	224 to 226 °C
CC(C)(C)c1ccc(-c2cc(Nc3cnc4ccccc4c3)ncn2)cc1 [Example 47]	227 to 229 °C
Nc1nc2c(Nc3cc(-c4ccc(C(F)(F)F)cc4)ncn3)cccc2s1 [N^4-[6-(4-Trifluoromethylphenyl)pyrimidin-4-yl]benzothiazole-2,4-diamine]	225 to 227 °C
CC(C)(C)c1ccc(-c2cc(Nc3ccc4c(c3)OCCO4)ncn2)cc1 [[6-(4-tert-Butylphenyl)pyrimidin-4-yl]-(2,3-dihydrobenzo[1,4]dioxin-6-yl)amine]	199 to 202 °C
Cc1ccc(Nc2cc(-c3ccc(C(F)(F)F)cc3)ncn2)cc1 [Example 60]	159 to 160 °C
FC(F)(F)c1ccc(-c2cc(Nc3ccc4ccc(Cl)nc4c3)ncn2)cc1 [(2-Chloroquinolin-7-yl)-[6-(4-trifluoromethylphenyl)pyrimidin-4-yl]amine]	233 °C

Compound	melting point
CC(=O)Nc1ccc(Nc2cc(-c3ccc(C(F)(F)F)cc3)ncn2)cc1 [Example 66]	236 to 238 °C
Oc1ccc2ccc(Nc3cc(-c4ccc(C(F)(F)F)cc4)ncn3)cc2n1 [7-[6-(4-Trifluoromethylphenyl)pyrimidin-4-ylamino]quinolin-2-ol]	337 °C (dec.)
COc1ccc(-c2nnc(Nc3ccc4cccnc4c3)cc2-c2ccc(C(F)(F)F)cc2)cc1 [Example 89, [6-(4-Methoxyphenyl)-5-(4-trifluoromethylphenyl)pyridazin-3-yl]-[quinolin-7-yl]amine]	215 to 217 °C
COc1ccc(Nc2cc(-c3ccc(C(F)(F)F)cc3)ncn2)cn1 [(6-methoxypyridin-3-yl)-[6-(4-trifluoromethylphenyl)pyrimidin-4-yl]amine]	123 to 127 °C
CC(C)(C)c1ccc(-c2cc(Nc3ccc4c(c3)OCCO4)nc(N)n2)cc1 (as salt: hydrochloride) [[2-Amino-6-(4-tert-butylphenyl)pyrimidin-4-yl]-(2,3-dihydrobenzo[1,4]-dioxin-6-yl)amine hydrochloride]	221 to 224 °C
Cc1nc2cc(Nc3cc(-c4ccc(C(F)(F)F)cc4)ncn3)ccc2s1 [(2-methylbenzothiazol-5-yl)-[6-(4-trifluoromethylphenyl)pyrimidin-4-yl]amine]	219.5 to 220.5 °C
Cc1ccccc1Nc1cc(-c2ccc(C(F)(F)F)cc2)ncn1 [Example 64]	117 to 119 °C
FC(F)(F)c1ccc(-c2cc(Nc3ccc(Cl)c(Cl)c3)ncn2)cc1 [(3,4-dichlorophenyl)-[6-(4-trifluoromethylphenyl)pyrimidin-4-yl]amine]	178 to 180 °C
FC(F)(F)c1ccc(-c2cc(Nc3ccc4c(c3)OCCO4)ncn2)cc1 [(2,3-dihydrobenzo[1,4]dioxin-6-yl)-[6-(4-trifluoromethylphenyl)pyrimidin-4-yl]amine]	167 to 168 °C
FC(F)(F)c1ccc(-c2cc(Nc3cccnc3Cl)ncn2)cc1 [(2-chloropyridin-3-yl)-[6-(4-trifluoromethylphenyl)pyrimidin-4-ylamine]	134 to 135 °C
Cc1ccc(Nc2cc(-c3ccc(C(F)(F)F)cc3)ncn2)cc1C [(3,4-dimethylphenyl)-[6-(4-trifluoromethylphenyl)pyrimidin-4-yl]amine]	154 to 156 °C
Cc1c(Cl)cccc1Nc1cc(-c2ccc(C(F)(F)F)cc2)ncn1 [Example 57]	148 to 150 °C
FC(F)(F)c1ccc(-c2cc(Nc3ccc4ncsc4c3)nnc2-c2ccccc2)cc1 [benzothiazol-6-yl-[6-phenyl-5-(4-trifluoromethylphenyl)pyridazin-3-yl]amine]	272 °C
CSc1cccc(Nc2cc(-c3ccc(C(F)(F)F)cc3)ncn2)c1 [(3-methylsulfanylphenyl)-[6-(4-trifluoromethylphenyl)pyrimidin-4-yl]amine]	130 to 132 °C
OCc1cc2cccc(Nc3cc(-c4ccc(C(F)(F)F)cc4)ncn3)c2[nH]1 [{7-[6-(4-Trifluoromethylphenyl)pyrimidin-4-ylamino]-1H-indol-2-yl}methanol]	221 to 223 °C
FC(F)(F)c1ccc(-c2cc(Nc3ccc4ccccc4c3)ncn2)cc1 [Example 70]	212 to 213 °C
FC(F)(F)c1ccc(-c2cc(Nc3ccc4cccnc4c3)ncn2)cc1 [Quinolyl-7-yl-[6-(4-trifluoromethylphenyl)pyrimidin-4-yl]amine]	260 °C
CS(=O)(=O)c1cccc(Nc2cc(-c3ccc(C(F)(F)F)cc3)ncn2)c1 [(3-Methanesulfonylphenyl)-[6-(4-trifluoromethylphenyl)pyrimidin-4-yl]amine]	204 to 205 °C
FC(F)(F)c1ccc(-c2cc(Nc3ccc(Cl)cc3)ncn2)cc1 [(4-chlorophenyl)-[6-(4-trifluoromethylphenyl)pyrimidin-4-yl]amine]	193 to 196 °C
FC(F)(F)c1ccc(-c2cc(Nc3cnc4ccccc4c3)ncn2)cc1 [Example 50]	262 to 263 °C
FC(F)(F)c1ccc(-c2cc(Nc3cccc4ncccc34)ncn2)cc1 [Example 74]	238 to 239 °C
FC(F)(F)c1ccc(-c2cc(Nc3ccc4ncsc4c3)nnc2-c2ccc(C(F)(F)F)cc2)cc1 [benzothiazol-6-yl-[5,6-bis-(4-trifluoromethylphenyl)pyridazin-3-yl]amine]	243 °C
OCCOc1ccc(Nc2cc(-c3ccc(C(F)(F)F)cc3)ncn2)cn1 [2-{5-[6-(4-Trifluoromethylphenyl)pyrimidin-4-ylamino]pyridin-2-yloxy}ethanol]	189.5 to 190.5 °C
CC(C)(C)c1ccc(-c2cc(Nc3ccc4c(c3)CCCC4=O)ncn2)cc1 [6-[6-(4-tert-butylphenyl)pyrimidin-4-ylamino]-3,4-dihydro-2H-naphthalen-1-one]	230 to 232 °C
FC(F)(F)c1ccc(-c2cc(Nc3cccc4ccccc34)ncn2)cc1 [Example 76]	232 to 233 °C
CC(C)(C)c1ccc(-c2cc(Nc3ccc4ncsc4c3)ncn2)cc1 [benzothiazol-6-yl-[6-(4-tert-butylphenyl)pyrimidin-4-yl]amine]	237 °C
